In paper PMC12649225, “Machine Learning-Identified Potent Antimicrobial Peptides Against Multidrug-Resistant Bacteria and Skin Infections” (Antibiotics, 2025):
Like-named read-outs stand apart in the source and are kept apart here. Residues, ends and D or L forms follow the SMILES beside them.

What was measured:
MDR ESKAPE pathogens = experiment: Bactericidal activity (LC99.9), statements for the whole panel; type: cell-based
Procedure: (§1) The bacterial strains used in this study included S. aureus JAR060131 [54] and the MDR ESKAPE pathogens Enterococcus faecium LUH15122, S. aureus LUH14616, Klebsiella pneumoniae LUH15104, A. baumannii RUH875 [55], Pseudomonas aeruginosa LUH15103, Enterobacter cloacae LUH15114, and the colistin-resistant Escherichia coli LUH15117. Before each experiment, bacteria from frozen stocks were cultured at 37 °C for 18–24 h on sheep blood agar plates (BioMérieux, Marcy-l’Étoile, France). All strains were then cultured from colonies either in tryptic soy broth (TSB; Oxoid, Basingstoke, UK) for A. baumannii, S. aureus, and E. faecium, or in brain heart infusion broth (BHI; Oxoid) for K. pneumoniae, P. aeruginosa, E. cloacae, and E. coli at 37 °C with shaking at 120 rpm for 18–24 h. Subsequently, bacteria were cultured to mid-logarithmic phase in the media described above at 37 °C with shaking at 120 rpm for 3 h. Bacteria were then washed twice with PBS and diluted to the required inoculum suspension concentration in Roswell Park Memorial Institute (RPMI)-1640 medium containing 20 mM HEPES and L-glutamine but without sodium bicarbonate (Sigma-Aldrich; hereafter referred to as RPMI), based on optical density at 620 nm. RPMI was selected because it supports bacterial growth without impairing AMP activity.
(§2) Bactericidal activity was assessed as described by de Breij et al.. Briefly, mid-logarithmic phase bacterial cultures were diluted to a final concentration of 1 × 10^7 colony-forming units (CFU)/mL in RPMI. Then, 10 µL was added to a final volume of 100 µL in RPMI (final concentration: 1 × 10^6 CFU/mL). Cultures were exposed to peptides either in RPMI or RPMI supplemented with 50% (v/v) human plasma (hereafter referred to as 50% plasma), obtained from four healthy volunteers after informed consent, frozen after collection, and pooled (Sanquin, Amsterdam, The Netherlands). Assays were performed in duplicate using round-bottom polypropylene microtiter plates (Costar, Arlington, VA, USA) and repeated three times. In the initial screening phase (Table 1, Table 2 and Table S1), peptide solutions of 1, 10, and 100 μM (final concentration) were tested against A. baumannii RUH875 and S. aureus JAR060131 in RPMI and in 50% plasma. After this selection process, two lead candidates, their RI variants, and reference peptides were tested with a final concentration range of 0.12 to 120 µM (two-fold dilutions) in RPMI and in 50% plasma (Table 3). The peptides were also tested against ESKAPE pathogens, with Synthetic Antimicrobial and Antibiofilm Peptide (SAAP)-148 as a reference peptide (Table 4).RPMI or 50% plasma served as no-treatment controls. After 2 and 18 h of incubation at 37 °C with shaking at 120 rpm in a humidified environment, the numbers of viable bacteria were quantified. Bactericidal activity was expressed as the lethal concentration 99.9% (LC99.9), defined as the lowest peptide concentration that killed ≥99.9% of bacteria within 2 h (LC99.9_2h) or 18 h (LC99.9_18h) compared to the initial inoculum.

E. cloacae LUH15114 = type: cell-based; conditions: for LC99.9 E. cloacae LUH15114 50% Plasma 2 h / LC99.9 E. cloacae LUH15114 RPMI 2 h: LUH15114, 2 h
Procedure: as §1, §2

A. baumannii RUH875 [1] = type: cell-based; conditions: for LC99.9 A. baumannii RUH875 50% Plasma 18 h: RUH875, 18 h
Procedure: as §1, §2

E. coli LUH15117 = type: cell-based; conditions: for LC99.9 E. coli LUH15117 RPMI 2 h: LUH15117, 2 h; for LC99.9 E. coli LUH15117 RPMI 18 h: LUH15117, 18 h
Procedure: as §1, §2

S. aureus LUH14616 = type: cell-based
Procedure: as §1, §2

K. pneumoniae LUH15104 = type: cell-based; conditions: for LC99.9 K. pneumoniae LUH15104 50% Plasma 2 h / LC99.9 K. pneumoniae LUH15104 RPMI 2 h: LUH15104, 2 h; for LC99.9 K. pneumoniae LUH15104 50% Plasma 18 h / LC99.9 K. pneumoniae LUH15104 RPMI 18 h: LUH15104, 18 h
Procedure: as §1, §2

P. aeruginosa LUH15103 = type: cell-based; conditions: for LC99.9 P. aeruginosa LUH15103 50% Plasma 2 h / LC99.9 P. aeruginosa LUH15103 RPMI 2 h: LUH15103, 2 h; for LC99.9 P. aeruginosa LUH15103 50% Plasma 18 h / LC99.9 P. aeruginosa LUH15103 RPMI 18 h: LUH15103, 18 h
Procedure: as §1, §2

S. aureus JAR060131 [2] = test system: S. aureus JAR060131
Procedure: (§3) Bacteria incubated in PBS alone served as no-treatment controls. At five time points (1, 2, 5, 30, and 120 min), duplicate 50 µL samples were taken and immediately mixed with 50 µL of 0.05% (v/v) sodium polyanethol sulfonate (SPS; Sigma-Aldrich) in PBS to neutralize residual peptide activity. The number of viable bacteria was quantified by plating 10 µL aliquots of serial 10-fold dilutions onto sheep blood agar plates. Colonies were counted after 24 h of incubation at 37 °C.

A. baumannii RUH875 [3] = conditions: 3.75 μM
Procedure: as §3

S. aureus JAR060131 [4] = experiment: 3D human skin equivalent (HSE) infection model; type: cell-based, Staphylococcus aureus
Procedure: Human keratinocytes (Ker-CT cell line; ATCC CRL-4048; RRID: CVCL_S877; ATCC, Manassas, VA, USA (October 2017)) were used to generate human skin equivalents (HSEs) following the method described by Gent et al.. Briefly, HSEs were cultured for 12 days, after which the culture medium was replaced with antibiotic-free medium, and cells were grown for an additional two days before infection (Figure S2). On the day of infection, HSEs were inoculated with 300 µL of S. aureus JAR060131 suspension (3 × 10^5 CFU) and incubated for 1 h at 37 °C with 5% CO2. Following incubation, the bacterial suspension was removed, and HSEs were washed once with 500 µL PBS. HSEs were then treated for 4 h with PBS (control), GDST-038, GDST-045, their RI variants, or the reference peptide SAAP-148 at concentrations of 3.75, 15, and 60 μM, in triplicate. Subsequently, supernatants containing planktonic (non-adherent) bacteria were collected and kept on ice. Peptide activity was neutralized by adding SPS (final concentration: 0.025% (v/v)). Adherent bacteria within HSEs were quantified by homogenizing the tissues in 0.5 mL PBS containing 0.025% (v/v) SPS, using five zirconia beads (Ø 2 mm; BioSpec Products, Bartlesville, OK, USA) in a MagNA Lyser System (Roche) for three cycles of 30 sec at 7000 rpm, with 30 sec cooling intervals on ice. Both supernatants and homogenized fractions were serially diluted, plated on blood agar, and incubated overnight at 37 °C to determine CFU counts.

[5] = adherent fraction, 4 h peptide exposure, tested 3.75, 15, 60 μM

Row | Compound | LC99.9 E. cloacae LUH15114 50% Plasma 2 h (E. cloacae LUH15114) [µM] | LC99.9 E. cloacae LUH15114 RPMI 2 h (E. cloacae LUH15114) [µM] | LC99.9 A. baumannii RUH875 50% Plasma 18 h (A. baumannii RUH875 [1]) [µM] | LC99.9 E. coli LUH15117 RPMI 2 h (E. coli LUH15117) [µM] | LC99.9 E. coli LUH15117 RPMI 18 h (E. coli LUH15117) [µM] | LC99.9 S. aureus LUH14616 50% Plasma 2 h (S. aureus LUH14616; LUH14616, 2 h) [µM] | LC99.9 S. aureus LUH14616 RPMI 18 h (S. aureus LUH14616; LUH14616, 18 h) [µM] | LC99.9 K. pneumoniae LUH15104 50% Plasma 2 h (K. pneumoniae LUH15104) [µM] | LC99.9 K. pneumoniae LUH15104 RPMI 2 h (K. pneumoniae LUH15104) [µM] | LC99.9 K. pneumoniae LUH15104 50% Plasma 18 h (K. pneumoniae LUH15104) [µM] | LC99.9 K. pneumoniae LUH15104 RPMI 18 h (K. pneumoniae LUH15104) [µM] | LC99.9 P. aeruginosa LUH15103 50% Plasma 2 h (P. aeruginosa LUH15103) [µM] | LC99.9 P. aeruginosa LUH15103 RPMI 2 h (P. aeruginosa LUH15103) [µM] | LC99.9 P. aeruginosa LUH15103 50% Plasma 18 h (P. aeruginosa LUH15103) [µM] | LC99.9 P. aeruginosa LUH15103 RPMI 18 h (P. aeruginosa LUH15103) [µM] | Concentration eradicating adherent S. aureus in HSE (S. aureus JAR060131 [4]; [5]) [µM] | further results
1 | CC[C@@H](C)[C@@H](NC(=O)[C@@H](C)NC(=O)[C@@H](CCCCN)NC(=O)[C@@H](CCCCN)NC(=O)[C@@H](Cc1c[nH]c2ccccc12)NC(=O)[C@@H](Cc1c[nH]c2ccccc12)NC(=O)[C@@H](CCCNC(=N)N)NC(=O)[C@@H](CC(C)C)NC(=O)[C@@H](CC(C)C)NC(C)=O)C(=O)N[C@H](CCCCN)C(=O)N[C@@H](C(=O)N[C@H](Cc1c[nH]c2ccccc12)C(=O)N[C@H](CCCNC(=N)N)C(=O)N[C@H](CCCCN)C(N)=O)C(C)C [GDST-038-RI] (HELM PEPTIDE1{[ac].[dL].[dL].[dR].[dW].[dW].[dK].[dK].[dA].[dI].[dK].[dV].[dW].[dR].[dK].[am]}$$$$V2.0; N-terminus and C-terminus assumed) | 60 | 30 | 0.94 | 3.75 | 0.94 | 30 | 0.47 | 15 | 15 | 3.75 | 7.5 | 30 | 15 | 15 | 7.5 | – | Concentrations required for E. cloacae, S. aureus and P. aeruginosa in 50% plasma within 2 h (MDR ESKAPE pathogens; 50% plasma, 2 h, range over the three species): 30 to 60 µM; Time to complete killing of S. aureus (S. aureus JAR060131 [2]; 3.75 μM): ≤ 2 min; Time to complete killing of A. baumannii (A. baumannii RUH875 [3]): 120 min; Concentration giving significant reductions in adherent S. aureus in HSE (S. aureus JAR060131 [4]; adherent fraction, 4 h, p < 0.001): 60 µM; Effect on non-adherent S. aureus in HSE (S. aureus JAR060131 [4]; at 15 µM and 60 µM, 4 h): significant bacterial reductions
2 | Ac-KRWVKILKKVWRFL-NH2 [GDST-045] | 60 | 1.88 | 0.94 | 0.94 | 0.94 | 15 | 0.94 | 15 | 0.94 | 7.5 | 1.88 | 60 | 1.88 | 30 | 3.75 | 15 | Concentrations killing ESKAPE pathogens in 50% plasma within 2 h (MDR ESKAPE pathogens; 50% plasma, 2 h, range over species): 0.94 to 120 µM; Concentrations killing ESKAPE pathogens in 50% plasma after 18 h (MDR ESKAPE pathogens; 50% plasma, 18 h, range over species): 0.94 to 30 µM; Concentrations killing ESKAPE pathogens in RPMI within 2 h (MDR ESKAPE pathogens; RPMI, 2 h, range over species): 0.94 to 15 µM; LC99.9 E. cloacae LUH15114 50% Plasma 18 h (E. cloacae LUH15114; LUH15114, 18 h): 30 µM; LC99.9 E. cloacae LUH15114 RPMI 18 h (E. cloacae LUH15114; LUH15114, 18 h): 1.88 µM; LC99.9 A. baumannii RUH875 50% Plasma 2 h (A. baumannii RUH875 [1]; RUH875, 2 h): 1.88 µM; LC99.9 S. aureus LUH14616 RPMI 2 h (S. aureus LUH14616; LUH14616, 2 h): 0.94 µM; LC99.9 S. aureus LUH14616 50% Plasma 18 h (S. aureus LUH14616; LUH14616, 18 h): 1.88 µM; Time to complete killing of S. aureus (S. aureus JAR060131 [2]; 1.88 μM): ≤ 2 min; Effect on non-adherent S. aureus in HSE (S. aureus JAR060131 [4]; at all tested concentrations (3.75 µM, 15 µM, and 60 µM), 4 h): completely eradicated
3 | Ac-LKRVWKRVFKLLKRYWRQLKKPVR-NH2 (N-terminus and C-terminus assumed) [SAAP-148, reference compound] | – | – | – | – | – | – | – | – | – | – | – | – | – | – | – | 60 | Reduction in activity in plasma after 18 h (MDR ESKAPE pathogens; 50% plasma vs RPMI, 18 h, except E. cloacae, A. baumannii, K. pneumoniae): 8 to 16 fold; E. cloacae eradicated at lower concentrations in plasma (E. cloacae LUH15114; 50% plasma vs RPMI, 18 h): 4 fold; CFU reduction of non-adherent S. aureus in HSE (S. aureus JAR060131 [4]; 15 µM, 4 h, non-adherent fraction): 3 log CFU; Concentration reducing non-adherent S. aureus to below the detection limit in HSE (S. aureus JAR060131 [4]; non-adherent fraction, 4 h peptide exposure, tested 3.75, 15, 60 μM): 60 µM
